Experimental data published in the supplement of paper PMC4862054.

Columns and labels:
BT-474 = conditions: 72 h
Summary of the method: (§1)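 Per-plate normalisation used 0.1 % DMSO and a positive kill control. Breast cancer cell lines (20 µl suspension) were seeded into 384-well plates containing compound at 5 concentrations in 10-fold steps across a compound-specific 10,000-fold range, incubated for 72 h, and read first for CellTox Green fluorescence (485/520 nm), then for CellTiter-Glo luminescence. EC50 was fitted from the dose-response curves and censored at the top concentration.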

CAL-120 = conditions: 72 h
Summary of the method: as §1

CAL-51 = conditions: 72 h
Summary of the method: as §1

MCF-10A = conditions: 72 h
Summary of the method: as §1

MDA-MB-436 = conditions: 72 h
Summary of the method: as §1

MFM-223 [1] = conditions: 72 h
Summary of the method: as §1

CAL-148 = assay: drug sensitivity score (DSS), CellTox Green (DSS (AUC-based score)); higher = stronger drug effect (viability inhibition or cytotoxicity); extreme values may be limits of the assay; conditions: incubation time: 72 h
Summary of the method: (§2)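 Breast cancer cell lines, seeded as 20 µl suspension, were incubated 72 h with compound in 384-well plates at 5 concentrations in 10-fold steps over a 10,000-fold range set for each compound. Fluorescence from CellTox Green was read at 485/520 nm before CellTiter-Glo luminescence, which was read after 10 min at room temperature. Every plate was normalised to 0.1 % DMSO and a positive kill control, and the drug sensitivity score was taken from the area under the fitted dose-response curve.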

HCC1143 [2] = assay: as above; conditions: incubation time: 72 h
Summary of the method: as §2

HDQ-P1 [3] = assay: as above; conditions: incubation time: 72 h
Summary of the method: as §2

MFM-223 [4] = assay: as above; conditions: incubation time: 72 h
Summary of the method: as §2

BT-549 = conditions: 72 h
Summary of the method: as §1

MDA-MB-453 = conditions: 72 h
Summary of the method: as §1

CAL-85-1 = conditions: 72 h
Summary of the method: as §1

DU-4475 = conditions: 72 h
Summary of the method: as §1

HCC1143 [5] = conditions: 72 h
Summary of the method: as §1

HCC1599 = conditions: 72 h
Summary of the method: as §1

HCC1937 = conditions: 72 h
Summary of the method: as §1

HDQ-P1 [6] = conditions: 72 h
Summary of the method: as §1

Hs578T = conditions: 72 h
Summary of the method: as §1

MDA-MB-231 = conditions: 72 h
Summary of the method: as §1

SK-BR-3 = conditions: 72 h
Summary of the method: as §1

| SMILES | EC50, CellTiter-Glo (BT-474) | EC50, CellTiter-Glo (CAL-120) | EC50, CellTiter-Glo (CAL-51) | EC50, CellTiter-Glo (MCF-10A) | EC50, CellTiter-Glo (MDA-MB-436) | EC50, CellTiter-Glo (MFM-223 [1]) | drug sensitivity score (CAL-148) | drug sensitivity score (HCC1143 [2]) | drug sensitivity score (HDQ-P1 [3]) | drug sensitivity score (MFM-223 [4]) | EC50, CellTiter-Glo (BT-549) | EC50, CellTiter-Glo (MDA-MB-453) | EC50, CellTiter-Glo (CAL-85-1) | EC50, CellTiter-Glo (DU-4475) | EC50, CellTiter-Glo (HCC1143 [5]) | EC50, CellTiter-Glo (HCC1599) | EC50, CellTiter-Glo (HCC1937) | EC50, CellTiter-Glo (HDQ-P1 [6]) | EC50, CellTiter-Glo (Hs578T) | EC50, CellTiter-Glo (MDA-MB-231) | EC50, CellTiter-Glo (SK-BR-3) |
| --- | --- | --- | --- | --- | --- | --- | --- | --- | --- | --- | --- | --- | --- | --- | --- | --- | --- | --- | --- | --- | --- |
| COc1cc2/c(=N/c3ccc(Br)cc3F)nc[nH]c2cc1OCC1CCN(C)CC1 [Vandetanib] | 0.11 µM | > 1 µM | > 1 µM | 0.15 µM | > 1 µM | 0.37 µM | 0 | 0 | 1.32 | 0 | – | – | – | – | – | – | – | – | – | – | – |
| S=P(N1CC1)(N1CC1)N1CC1 [Thio-TEPA] | – | – | – | – | – | – | 0 | – | 0 | 0 | 8.21 µM | – | – | – | – | – | – | – | – | – | – |
| CNC(=O)c1ccc(N2C(=S)N(c3ccc(C#N)c(C(F)(F)F)c3)C(=O)C2(C)C)cc1F [Enzalutamide] | – | – | 0.0486 µM | – | – | – | 0 | 0 | 0 | 0 | – | > 10 µM | – | – | – | – | – | – | – | – | – |
| CN(C)c1nc(N(C)C)nc(N(C)C)n1 [Altretamine] | – | – | – | – | – | – | 0 | 0 | 0 | 0 | – | – | – | – | – | – | – | – | – | – | – |
| O=C(Nc1ccncc1)C(=O)c1cn(Cc2ccc(Cl)cc2)c2ccccc12 [Indibulin] | 0.282 µM | 0.408 µM | 0.165 µM | – | 0.203 µM | 0.28 µM | 0 | 0 | 0 | 4.4 | 0.185 µM | 0.164 µM | 0.169 µM | 3.81 µM | 0.754 µM | 0.129 µM | 0.245 µM | 0.523 µM | 0.482 µM | 1.04 µM | 0.355 µM |
| N#Cc1ccc(COC[C@H]2O[C@@H](n3c(NCc4ccc(Cl)c(Cl)c4)nc4c(N)ncnc43)[C@H](O)[C@@H]2O)cc1 | 0.857 µM | – | – | 2.65 µM | – | 4.53 µM | 0 | 0 | 0 | 3.38 | 1.52 µM | – | – | 1.17 µM | 2.64 µM | – | > 10 µM | 3.55 µM | 1.74 µM | – | 2.58 µM |
| COCC1(CO)C(=O)C2CCN1CC2 (stereo not given) [Prima-1 Met] | – | – | – | – | – | – | 0 | 0 | 0 | 0 | 2.9 µM | – | – | – | – | – | – | – | – | – | – |
| O=C(Nc1cccnc1)N1CCC(Cc2cccc(Oc3ccc(C(F)(F)F)cn3)c2)CC1 [PF-3845] | – | > 10 µM | 4.2 µM | – | – | – | 0 | 0 | – | 0 | 3.07 µM | – | > 10 µM | – | – | 9.42 µM | – | – | – | – | – |
| NC(=O)c1ccc(I)c([N+](=O)[O-])c1 [Iniparib] | – | – | – | – | 0.54 µM | – | 0 | 1.54 | 1.99 | 0 | – | – | – | – | – | – | – | – | – | – | – |
| C=C1C[C@@H]2[C@H](CC[C@]3(C)C(=O)CC[C@@H]23)[C@@]2(C)C=CC(=O)C=C12 [Exemestane] | – | – | – | – | – | – | 0 | 0 | 3.28 | 0 | – | – | – | – | – | – | – | – | – | – | – |
| Nc1cc(C(F)(F)F)c(-c2cc(N3CCOCC3)nc(N3CCOCC3)n2)cn1 [Buparlisib] | 5.15 µM | 8.23 µM | 2.4 µM | 0.513 µM | – | 0.225 µM | 0 | 0 | 0 | 0 | 2.36 µM | – | – | – | > 10 µM | – | 6.15 µM | 1 µM | 2.33 µM | 9.28 µM | – |
